± gives the standard deviation of the averaged measurements.
Experiments:
GEFITINIB = compound: COc1cc2ncnc(Nc3ccc(F)c(Cl)c3)c2cc1OCCCN1CCOCC1 [GEFITINIB]; experiment: surviving fraction relative to DMSO-only wells; higher = less growth inhibition; conditions: exposure time: 5 days
Summary of the method: (§1)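 Log-phase tumour cell lines were seeded at 250–500 cells per well in 384-well plates. After 24 hours they were exposed continuously for five days to inhibitors at 0.5, 1, 5, 10, 50, 100, 500 and 1000 nM. Viability was read by CellTiter-Glo luminescence after 10 minutes at room temperature, and surviving fraction is luminescence normalised to the median of DMSO-only wells. Each line was screened three times and kept only if replicate Pearson r >0.7 and median Z' >0.3.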

[1] = compound: CC(=O)c1c(C)c2cnc(Nc3ccc(N4CCNCC4)cn3)nc2n(C2CCCC2)c1=O; experiment: as above; conditions: exposure time: 5 days
Summary of the method: as §1

| Test System | surviving fraction (GEFITINIB; 0.5 nM) | surviving fraction (GEFITINIB; 1 nM) | surviving fraction (GEFITINIB; 5 nM) | surviving fraction (GEFITINIB; 10 nM) | surviving fraction (GEFITINIB; 50 nM) | surviving fraction (GEFITINIB; 100 nM) | surviving fraction (GEFITINIB; 500 nM) | surviving fraction (GEFITINIB; 1000 nM) | surviving fraction ([1]; 0.5 nM) | surviving fraction ([1]; 1 nM) | surviving fraction ([1]; 5 nM) | surviving fraction ([1]; 10 nM) | surviving fraction ([1]; 50 nM) | surviving fraction ([1]; 100 nM) | surviving fraction ([1]; 500 nM) | surviving fraction ([1]; 1000 nM) |
| --- | --- | --- | --- | --- | --- | --- | --- | --- | --- | --- | --- | --- | --- | --- | --- | --- |
| HCC202 BREAST | 1.4 ± 0.62 | 1.2 ± 0.23 | 1.35 ± 0.21 | 1.06 ± 0.14 | 1.32 ± 0.14 | 1.11 ± 0.37 | 0.542 ± 0.13 | 0.345 ± 0.013 | 0.959 ± 0.31 | 0.859 ± 0.088 | 1.01 ± 0.094 | 0.874 ± 0.16 | 0.863 ± 0.17 | 1 ± 0.25 | 1.19 ± 0.15 | 0.982 ± 0.22 |
| MHM BONE | 1.01 ± 0.046 | 1.02 ± 0.038 | 1.06 ± 0.051 | 1.05 ± 0.051 | 1.03 ± 0.012 | 1.026 ± 0.01 | 0.9993 ± 0.0096 | 0.972 ± 0.013 | 1.01 ± 0.029 | 0.98 ± 0.018 | 1.037 ± 0.0076 | 1.03 ± 0.011 | 1.05 ± 0.019 | 1.03 ± 0.016 | 0.966 ± 0.015 | 0.985 ± 0.044 |
| SUM159 BREAST | 1.1 ± 0.026 | 1.1 ± 0.034 | 1.09 ± 0.02 | 1.06 ± 0.025 | 1.08 ± 0.014 | 1.04 ± 0.031 | 1.03 ± 0.036 | 1.036 ± 0.0092 | 0.932 ± 0.26 | 0.942 ± 0.23 | 0.951 ± 0.18 | 0.893 ± 0.28 | 0.916 ± 0.3 | 0.842 ± 0.43 | 0.943 ± 0.27 | 0.925 ± 0.28 |
| SUM149.B1*.S BREAST | 1.11 ± 0.044 | 1.1 ± 0.027 | 1.11 ± 0.021 | 1.1 ± 0.023 | 1.1 ± 0.026 | 1.1 ± 0.06 | 1.03 ± 0.034 | 0.98 ± 0.032 | 1.13 ± 0.034 | 1.07 ± 0.013 | 1.11 ± 0.018 | 1.07 ± 0.019 | 1.19 ± 0.056 | 1.22 ± 0.058 | 1.139 ± 0.011 | 1.08 ± 0.021 |
| MDAMB468 BREAST | 1.11 ± 0.097 | 1.08 ± 0.062 | 1.14 ± 0.087 | 1.11 ± 0.02 | 1.07 ± 0.099 | 1.028 ± 0.01 | 0.588 ± 0.026 | 0.503 ± 0.058 | 1.07 ± 0.03 | 0.991 ± 0.044 | 1.07 ± 0.03 | 1 ± 0.041 | 1.1 ± 0.038 | 1.12 ± 0.032 | 1.05 ± 0.057 | 1.03 ± 0.064 |
| MDAMB361 BREAST | 0.861 ± 0.02 | 0.851 ± 0.071 | 0.908 ± 0.025 | 1 ± 0.042 | 0.89 ± 0.14 | 0.859 ± 0.15 | 0.834 ± 0.092 | 0.834 ± 0.13 | 0.924 ± 0.046 | 0.861 ± 0.13 | 0.882 ± 0.09 | 0.825 ± 0.053 | 0.881 ± 0.083 | 0.86 ± 0.032 | 0.861 ± 0.23 | 0.866 ± 0.021 |
| SNU475 LIVER | 1.05 ± 0.096 | 1.05 ± 0.05 | 1.01 ± 0.016 | 1.03 ± 0.05 | 1.02 ± 0.045 | 0.979 ± 0.038 | 0.939 ± 0.021 | 0.898 ± 0.028 | 1.02 ± 0.037 | 1.01 ± 0.041 | 1.06 ± 0.026 | 1.01 ± 0.073 | 1.07 ± 0.02 | 1.03 ± 0.088 | 1.04 ± 0.021 | 0.917 ± 0.04 |
| HCC78 LUNG | 1.03 ± 0.2 | 0.938 ± 0.12 | 1.01 ± 0.1 | 0.994 ± 0.12 | 0.967 ± 0.12 | 0.963 ± 0.067 | 0.711 ± 0.23 | 0.668 ± 0.19 | 1.03 ± 0.14 | 0.975 ± 0.063 | 1.29 ± 0.046 | 0.899 ± 0.2 | 1.02 ± 0.25 | 1.17 ± 0.14 | 0.619 ± 0.11 | 0.579 ± 0.041 |
| SJSA1 BONE | 1.15 ± 0.059 | 1.59 ± 0.071 | 1.62 ± 0.018 | 0.602 ± 0.04 | 1.8 ± 0.065 | 1.67 ± 0.033 | 1.68 ± 0.052 | 1.68 ± 0.018 | 1 ± 0.037 | 1.01 ± 0.099 | 1.028 ± 0.0059 | 1.04 ± 0.049 | 1.08 ± 0.028 | 1.12 ± 0.013 | 0.922 ± 0.037 | 0.88 ± 0.036 |
| JIMT1 BREAST | 1.02 ± 0.051 | 1.02 ± 0.016 | 1.03 ± 0.028 | 1.02 ± 0.022 | 1.06 ± 0.027 | 1.03 ± 0.046 | 0.811 ± 0.043 | 0.773 ± 0.047 | 0.959 ± 0.013 | 0.9905 ± 0.0018 | 0.993 ± 0.024 | 0.964 ± 0.027 | 1.1 ± 0.03 | 1 ± 0.031 | 1.05 ± 0.014 | 1.01 ± 0.032 |
| OSHN BONE | 1.1 ± 0.012 | 1.11 ± 0.017 | 1.12 ± 0.013 | 1.13 ± 0.026 | 1.15 ± 0.0076 | 1.15 ± 0.024 | 1.142 ± 0.0066 | 1.11 ± 0.021 | 1.091 ± 0.005 | 1.073 ± 0.0079 | 1.09 ± 0.022 | 1.07 ± 0.018 | 1.12 ± 0.037 | 1.1 ± 0.018 | 1.13 ± 0.02 | 1.08 ± 0.032 |
| SG32 HEADNECK | 1.33 ± 0.14 | 1.37 ± 0.097 | 1.39 ± 0.32 | 1.19 ± 0.24 | 1.28 ± 0.066 | 1.1 ± 0.12 | 0.826 ± 0.15 | 0.961 ± 0.094 | 1.05 ± 0.16 | 1.31 ± 0.3 | 1.2 ± 0.11 | 1.09 ± 0.082 | 0.942 ± 0.11 | 0.993 ± 0.16 | 0.699 ± 0.059 | 0.721 ± 0.03 |
| HELA CERVIX | 1.07 ± 0.044 | 1.05 ± 0.019 | 1.106 ± 0.0031 | 1.06 ± 0.033 | 1.15 ± 0.029 | 1.14 ± 0.022 | 1.18 ± 0.065 | 1.14 ± 0.058 | 1.03 ± 0.037 | 0.986 ± 0.016 | 1.01 ± 0.046 | 0.959 ± 0.04 | 1.14 ± 0.072 | 1.15 ± 0.034 | 1.16 ± 0.021 | 1.04 ± 0.039 |
| CADOES1 SOFT TISSUE | 1.01 ± 0.045 | 0.9 ± 0.058 | 0.852 ± 0.063 | 0.906 ± 0.13 | 0.824 ± 0.12 | 0.942 ± 0.11 | 0.953 ± 0.12 | 0.995 ± 0.16 | 0.962 ± 0.048 | 0.897 ± 0.11 | 0.821 ± 0.078 | 0.883 ± 0.13 | 0.83 ± 0.053 | 0.921 ± 0.039 | 0.726 ± 0.011 | 0.704 ± 0.048 |

From the supplement of paper PMC6045584
